Measurements as given in the NIST ThermoML archive (doi:10.1016/j.jct.2005.09.003).

Assay: xn = mol fraction of the nth substance listed
Conditions: 328.15 K, Liquid

CCCCCCCl [1-chlorohexane] + CCCCCCCC
mass density [kg/m3]
Conditions | x2 = 0 | x2 = 0.1016 | x2 = 0.1996 | x2 = 0.3153 | x2 = 0.3948 | x2 = 0.4862 | x2 = 0.5938 | x2 = 0.6966 | x2 = 0.794 | x2 = 0.9001
20370 kPa | – | – | – | – | – | 773.56 | 755.51 | 739.04 | 723.83 | 707.88
22390 kPa | 865.82 | 845.55 | 826.81 | 805.24 | 791.08 | 775.27 | 757.24 | 740.74 | 725.52 | 709.57
24420 kPa | 867.51 | 847.24 | 828.51 | 806.94 | 792.78 | 776.96 | 758.91 | 742.4 | 727.18 | 711.21
26450 kPa | 869.18 | 848.91 | 830.19 | 808.59 | 794.43 | 778.61 | 760.54 | 744.05 | 728.79 | 712.83
28470 kPa | 870.8 | 850.52 | 831.8 | 810.22 | 796.05 | 780.22 | 762.15 | 745.64 | 730.38 | 714.38
29490 kPa | 871.6 | 851.32 | 832.59 | 811.01 | 796.83 | 781.01 | 762.93 | 746.43 | 731.16 | 715.18
30500 kPa | 872.4 | 852.13 | 833.4 | 811.81 | 797.63 | 781.8 | 763.73 | 747.21 | 731.95 | 715.96
32530 kPa | 873.95 | 853.71 | 834.95 | 813.36 | 799.19 | 783.35 | 765.25 | 748.74 | 733.44 | 717.46
34550 kPa | 875.49 | 855.25 | 836.5 | 814.87 | 800.71 | 784.87 | 766.77 | 750.23 | 734.96 | 718.95
36580 kPa | 877.05 | 856.79 | 838.03 | 816.42 | 802.23 | 786.39 | 768.27 | 751.74 | 736.44 | 720.42
38600 kPa | 878.53 | 858.28 | 839.51 | 817.9 | 803.7 | 787.85 | 769.73 | 753.2 | 737.86 | 721.85
39620 kPa | 879.31 | 859.03 | 840.27 | 818.64 | 804.43 | 788.56 | 770.44 | 753.9 | 738.58 | 722.55
